Values joined by “and” are separate entries in the source; they are usually repeats but may differ in a detail not shown here. Equal entries are not always repeated. Non-standard residues stand in square brackets, D forms with d. Residues, ends and D or L forms follow the SMILES beside them. No end group written: not given here. *: point of attachment. X1 = C[C@H](O)[C@H](C(=O)*)N1CN2CCC[C@@H]2C1=O
Experiments:
[1] = biological target: T1, human D-amino acid oxidase (hDAAO) (Homo sapiens, UniProt P14920); test: hDAAO inhibition assay; type: biochemical; settings: 7.5 mM D-serine, 30 min
T1 construct: made in house; host or cells: E. coli
T1 sequence (P14920 whole entry): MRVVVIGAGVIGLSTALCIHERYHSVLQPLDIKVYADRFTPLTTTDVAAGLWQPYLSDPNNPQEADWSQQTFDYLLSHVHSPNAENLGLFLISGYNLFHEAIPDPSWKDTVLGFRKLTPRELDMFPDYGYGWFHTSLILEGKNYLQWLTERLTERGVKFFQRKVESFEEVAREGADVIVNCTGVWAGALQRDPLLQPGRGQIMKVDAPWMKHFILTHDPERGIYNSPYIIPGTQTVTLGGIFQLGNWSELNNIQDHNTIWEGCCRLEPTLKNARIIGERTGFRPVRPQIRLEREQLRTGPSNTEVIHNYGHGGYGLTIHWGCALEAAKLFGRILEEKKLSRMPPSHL
Description: (§1) For hDAAO activity and inhibition assays, the tested substances were incubated with 0.17 U/mL recombinant hDAAO, 0.1 U/mL horseradish peroxidase (Roche, Switzerland) and 4 µM flavin adenine dinucleotide (FAD) in 50 mM sodium phosphate buffer (pH 7.4). […] The Amplex UltraRed reagent is a fluorogenic substrate for horseradish peroxidase that reacts with the hydrogen peroxide produced by the oxidative deamination of D-amino acids to build Amplex UltroxRed, a fluorescent reaction product, which served as indicator for hDAAO activity. All enzymatic assays were conducted at room temperature in 96-well plate format using an automated liquid-handler system (epMotion 5075; Eppendorf, Hamburg, Germany). Recombinant hDAAO was overexpressed in E. coli and purified as previously reported.
To examined whether RD2 inhibits hDAAO activity, the enzyme was incubated with 7.5 mM D-serine alone and together with 0 to 625 µM RD2 or sodium benzoate (a known hDAAO inhibitor)[30], horseradish peroxidase and FAD for 30 min and the fluorescence signal of Amplex UltroxRed was recorded. hDAAO residual activity in the presence of different concentrations of RD2 or sodium benzoate was expressed relatively to the values recorded in the absence of ligands (set as 100% activity). The data were fit to a four-parameter equation to determine the curve top, bottom, IC50 and Hill slope.

[2] = Comparison of RD2 metabolite profiles across species: cynomolgus liver microsomes; type: in vitro ADME, cynomolgus monkey; settings: cynomolgus microsome batches, LC-MS
Description: (§2) The preparation of the media was performed as described before in Elfgen et al.[24]. Preparation of simulated gastric and intestinal fluid (SGF & SIF) was done according to the European Pharmacopoeia 7.0. Plasma samples were obtained from human blood of a volunteer donor. Pooled human liver microsomes were purchased from Sekisui XenoTech (Kansas City, USA; H1000, Lot: 0710494 and 1210270; H1500, Lot: 1210079), from Sigma-Aldrich (St. Louis, USA; M0692, Lot: SLBL1433V; M0567, Lot: SLBR2706V and SLBN7300V) and from Gibco, Thermo Fisher Scientific (Waltham, USA; HMMCPL, Lot: PL050; HMMCPM, Lot: PL039). Pooled Sprague Dawley rat liver microsomes were purchased from Sigma-Aldrich (St. Louis, USA; M9066, Lot: SLBN0707V) and from Gibco, Thermo Fisher Scientific (Waltham, USA; RTMCPL, Lot: RT053). Pooled cynomolgus monkey liver microsomes were purchased from Gibco, Thermo Fisher Scientific (Waltham, USA; MKMCPL, Lot: MK062) and from Sekisui XenoTech (Kansas City, USA; P2000, Lot: 1210334). The liver microsomes were diluted in an NADPH regenerating system (NRS).
(§3) For the stability tests, 150 µM RD2 or L-RD2 was incubated in SGF, SIF, human plasma and human liver microsomes in triplicate at 37 °C with slight shaking for different time periods. To prevent microbial contaminations in long-term plasma incubations, 0.1% sodium azide was added to the solutions. Microsomal long-term activity was examined by incubating microsomes without peptide for up to 24 h and adding L-RD2 after 8 and 24 h. The ability to degrade L-RD2 served as indicator for their activity. For the comparison of RD2 metabolite profiles across species, 150 µM RD2 was incubated in human, rat and cynomolgus liver microsomes at 37 °C for 2 and 24 h. […]
(§4) For the comparison of RD2 metabolite profiles across species (see 2.3), mobile phases were acetonitrile (A) and water (B) each supplemented with 0.1% TFA. […] The amount of the purified HSM-3 was calculated based on a calibration curve of 10 to 100 µM RD2 extracted from human liver microsomes.

[3] = Stability of purified HSM-3 stored in solution (MALDI-MS, UHPLC-ESI-QTOF-MS); type: physicochemical; settings: stored in solution at low temperatures
[4] = Comparison of RD2 metabolite profiles across species: human liver microsomes; type: in vitro ADME
Description: as §2
(§5) For the stability tests, 150 µM RD2 or L-RD2 was incubated in SGF, SIF, human plasma and human liver microsomes in triplicate at 37 °C with slight shaking for different time periods. To prevent microbial contaminations in long-term plasma incubations, 0.1% sodium azide was added to the solutions. Microsomal long-term activity was examined by incubating microsomes without peptide for up to 24 h and adding L-RD2 after 8 and 24 h. The ability to degrade L-RD2 served as indicator for their activity. For the comparison of RD2 metabolite profiles across species, 150 µM RD2 was incubated in human, rat and cynomolgus liver microsomes at 37 °C for 2 and 24 h. The peptides were extracted by precipitating the proteins with trichloroacetic acid (TCA) and subsequent centrifugation, as described previously in Elfgen et al.[24]. Peptides immediately extracted from the media and precipitated media without peptides served as controls.
For the comparison of RD2 metabolite profiles across species (see 2.3), mobile phases were acetonitrile (A) and water (B) each supplemented with 0.1% TFA. The gradient ran from 0 to 100% solvent A and is described in detail in Table S1. The chromatographic RD2 metabolite profiles were screened for potential human-specific metabolites. RD2 and the major RD2 metabolite present after 24 h of incubation in human liver microsome batches 7 and 8, HSM-3, were purified by RP-HPLC. Mobile phases were acetonitrile (A) and water (B) each supplemented with 0.15% TFA. The samples were separated isocratically at 10% solvent A for 30 min. RD2 as well as HSM-3 were collected and the samples were freeze-dried subsequently. The amount of the purified HSM-3 was calculated based on a calibration curve of 10 to 100 µM RD2 extracted from human liver microsomes.

[5] = Comparison of RD2 metabolite profiles across species: rat liver microsomes; type: in vitro ADME; settings: rat microsome batches, LC-MS
Description: as §2, §3, §4

MTT cell viability assay = type: cell-based, rat; settings: cell viability
Description: (§6) Rat PC12 (pheochromocytoma) cells (Leibniz Institute DSMZ, Braunschweig, Germany) were cultivated in Dulbecco’s Modified Eagle Medium (DMEM) supplemented with 10% fetal bovine serum, 5% horse serum and 1% penicillin-streptomycin. 10,000 cells per well were seeded on collagen A-coated 96-well plates (Thermo Fisher Scientific, Waltham, USA) and incubated in a 95% humidified atmosphere with 5% CO2 at 37 °C for 24 h. Samples with untreated RD2 and RD2 or HSM-3 purified from human liver microsomes (see 2.8) in 10 mM sodium phosphate buffer (pH 7.4) were prepared. Buffer without peptides and Triton X-100 (cytotoxic compound) served as controls. The samples were added to the PC12 cells in quadruple and incubated in 95% humidified atmosphere with 5% CO2 at 37 °C for 24 h. Final concentrations were 2 µM untreated RD2, purified RD2, purified HSM-3 and 0.125% Triton X-100. Cell viability was then measured using the Cell Proliferation Kit I (MTT) (Roche, Basel, Switzerland) according to the manufacturer’s instruction. The final absorbance of the formazan product was determined as the absorbance at 570 nm subtracted by the absorbance at 660 nm. All results were normalized to cells that were treated with buffer only. The experiments were performed in triplicate.

CYP1A = biological target: T2, CYP1A (Homo sapiens, UniProt P05177); test: CYP isoform inhibition in human liver microsomes (Cyprotex); settings: human, human liver microsomes, probe ethoxyresorufin (0.5 µM)
T2 sequence (P05177 2-516): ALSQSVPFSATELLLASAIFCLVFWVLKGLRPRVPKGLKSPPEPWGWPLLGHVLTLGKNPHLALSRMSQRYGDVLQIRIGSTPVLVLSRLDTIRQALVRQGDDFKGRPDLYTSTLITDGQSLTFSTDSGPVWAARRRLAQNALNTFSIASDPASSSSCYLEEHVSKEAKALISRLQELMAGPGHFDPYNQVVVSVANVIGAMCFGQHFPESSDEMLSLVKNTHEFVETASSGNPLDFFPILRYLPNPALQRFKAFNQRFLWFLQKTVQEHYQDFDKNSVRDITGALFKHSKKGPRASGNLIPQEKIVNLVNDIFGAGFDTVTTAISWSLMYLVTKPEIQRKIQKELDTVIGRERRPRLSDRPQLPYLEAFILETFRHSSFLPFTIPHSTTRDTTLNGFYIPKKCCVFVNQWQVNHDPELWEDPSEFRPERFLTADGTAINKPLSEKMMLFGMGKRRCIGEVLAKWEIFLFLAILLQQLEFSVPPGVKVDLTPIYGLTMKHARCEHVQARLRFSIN
Description: The experiments were performed by Cyprotex. […] The reactions were terminated by methanol and the generated metabolites were monitored by LC-MS/MS or fluorescence. […] All assays were performed sevenfold. […] For all other substrates, the termination plates were centrifuged at 2,500 rpm and 4 °C for 30 min and aliquots of the supernatants were combined and transferred to fresh 96-well plates. Formic acid in deionized water (final concentration 0.1%) containing internal standard was added to the supernatants prior to cassette analysis by LC-MS/MS. A decrease in the formation of the metabolite compared to the vehicle control was used to calculate the IC50 values.

[6] = test system: Rat PC12 (pheochromocytoma) cells; test: MTT cell viability assay; type: cell-based; settings: 0.125% Triton X-100, PC12 cells, 24 h, MTT
Description: as §6

[7] = Stability in simulated intestinal fluid (SIF), RP-HPLC; type: in vitro ADME; settings: a few seconds
Description: as §2, §3
(§7) For sample analysis from stability tests (see 2.3), mobile phases were acetonitrile (A) and water (B) each supplemented with 0.15% trifluoroacetic acid (TFA) (v/v). The samples were measured isocratically at 10% solvent A for 30 min. […] A chromatographic metabolite profile of L-RD2 in SIF was recorded with the same mobile phases but using a gradient from 0 to 30% solvent A in 30 min.

[8] = biological target: T1, human D-amino acid oxidase (hDAAO); test: hDAAO activity assay (substrate test); type: biochemical; settings: 0.2 mM D-alanine as substrate, 2 h incubation
Description: as §1
To investigate whether RD2 acts as substrate for hDAAO, the enzyme was incubated with 2.9 mM RD2, horseradish peroxidase and FAD for up to 6 h and the fluorescence signal of the Amplex UltroxRed reagent was measured (sample values). Positive control measurements using 0.2 mM D-alanine as substrate were performed in parallel. Additionally, negative control measurements without substrates were performed. The relative emission at 590 nm was determined by subtracting control measurements to sample values.

[9] = Stability in human plasma, RP-HPLC; type: in vitro ADME; settings: female, 37 °C
Description: as §2, §5
For sample analysis from stability tests (see 2.3), mobile phases were acetonitrile (A) and water (B) each supplemented with 0.15% trifluoroacetic acid (TFA) (v/v). The samples were measured isocratically at 10% solvent A for 30 min. This run conditions allowed us to detect smallest chemical changes including the differentiation between the original compound and a deamidated version (Fig. S1). RD2 and L-RD2 can potentially be deamidated at two sites, the C-terminus and the asparagine at position seven. Peak areas of the unmetabolized peptides after different incubation times were normalized to the peptides’ peak areas after direct extraction from the media. […] A chromatographic metabolite profile of L-RD2 in SIF was recorded with the same mobile phases but using a gradient from 0 to 30% solvent A in 30 min.

[10] = Stability in simulated gastric fluid (SGF), RP-HPLC; type: in vitro ADME; settings: 37 °C, read-out: peptide degraded
Description: as §2, with “The liver microsomes were diluted in an NADPH regenerating system (NRS).” left out
as §7

[11] = Stability in human liver microsomes, RP-HPLC / UHPLC-ESI-QTOF-MS; type: in vitro ADME
Description: as §2, §5
For sample analysis from stability tests (see 2.3), mobile phases were acetonitrile (A) and water (B) each supplemented with 0.15% trifluoroacetic acid (TFA) (v/v). The samples were measured isocratically at 10% solvent A for 30 min. This run conditions allowed us to detect smallest chemical changes including the differentiation between the original compound and a deamidated version (Fig. S1). RD2 and L-RD2 can potentially be deamidated at two sites, the C-terminus and the asparagine at position seven. Peak areas of the unmetabolized peptides after different incubation times were normalized to the peptides’ peak areas after direct extraction from the media. […] A chromatographic metabolite profile of L-RD2 in SIF was recorded with the same mobile phases but using a gradient from 0 to 30% solvent A in 30 min. […]

O=C([O-])c1ccccc1.[Na+] [sodium benzoate]
decrease in hDAAO activity ([1]; 625 µM): 92.8 ± 0.1% and 93 ± 0.1% | IC50 ([1]; read-out: IC50 hDAAO (four-parameter fit)): 7 µM

CC(C)C[C@@H](NC(=O)[C@@H]([C@H](C)O)N1CN2CCC[C@@H]2C1=O)C(=O)N[C@H](Cc1c[nH]cn1)C(=O)N[C@@H](C(=O)N[C@H](Cc1c[nH]cn1)C(=O)N[C@H](CC(N)=O)C(=O)N[C@H](CCCNC(=N)N)C(=O)N[C@H](CCCNC(=N)N)C(=O)N[C@H](CCCNC(=N)N)C(=O)N[C@H](CCCNC(=N)N)C(=O)N[C@H](CCCNC(=N)N)C(N)=O)[C@H](C)O [HSM-3] (X1-[dL][dH][dT][dH][dN][dR][dR][dR][dR][dR]-NH2; C-terminus assumed)
detection of HSM-3 after incubation of RD2 [2]: not detectable | stability of purified HSM-3 in solution [3]: instable and reacted back to RD2 | metabolite relative to the parent compound ([4]; human microsome batches 7 and 8, 2 h): 1% and 5% | metabolite relative to the parent compound ([4]; human microsome batches 7 and 8, 24 h): 31% and 52% | detection of HSM-3 after incubation of RD2 ([4]; other six human microsome batches, LC-MS): not detectable | detection of HSM-3 after incubation of RD2 [5]: not detectable | viability at 2 µM (MTT cell viability assay): 99 ± 3%

O=c1cc(-c2ccccc2)oc2c1ccc1ccccc12 [Alpha-naphthoflavone, reference compound]
IC50 (CYP1A): 0.0781 µM

Triton X-100 [reference compound]
cell viability [6]: 14 ± 1%

KLVFFRRRRRR-NH2
detection of the peptide after incubation in SIF [7]: could not be detected

C[C@@H](N)C(=O)O [D-alanine]
recorded emission at 590 nm [8]: 61125 ± 2120 AU

PTLHTHNRRRRR-NH2 [L-RD2, reference compound]
metabolised at 24 h, 150 µM ([9]; 150 µM, within one day, read-out: peptide degraded): 92 ± 4% | half-life at 150 µM ([9]; read-out: half-life (first order kinetics fit) (converted)): 2 h | metabolised at 24 h, 150 µM [10]: 23 ± 4% | metabolization in SIF ([7]; 150 µM): completely metabolized within a few seconds | deamidation in human liver microsomes ([11]; UHPLC-ESI-QTOF-MS): increasingly metabolized to the one-fold deamidated species | metabolised at 0.5 h, 150 µM ([11]; pooled human liver microsomes, 150 µM, 37 °C, within 30 min, read-out: peptide degraded): 87 ± 1%

Source: publication PMC6450887, “Metabolic resistance of the D-peptide RD2 developed for direct elimination of amyloid-β oligomers” (Scientific Reports, 2019)
